Measured values from patent publication US20250122191A1, “COMPOUNDS AS BCL-2 INHIBITORS” (Fochon Biosciences, Ltd, priority 2021, published 2025).

Columns and labels:
Assay type in all cases: cell-based
RS4;11-BCL-2 G101V cells = assay: Cell proliferation assay (MTS), RS4;11-BCL-2 G101V engineered cells; conditions: Homo sapiens, 120 h, read-out: RS4, 11 BCL2-G101V IC50
Summary of the method: (§1)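 Inhibition of mutant BCL-2 is inferred from reduced proliferation of RS4;11 cells stably overexpressing the mutant. Compounds are tested at 1.5–10000 nM for 120 h (G101V, F104L) or 72 h (D103E, D103Y), with MTS absorbance at 490 nm used to derive IC50.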

RS4;11-BCL-2 F104L cells = assay: Cell proliferation assay (MTS), RS4;11-BCL-2 F104L engineered cells; conditions: Homo sapiens, 120 h, read-out: RS4, 11 BCL2-F104L IC50
Summary of the method: as §1

RS4;11-BCL-2 D103E cells = assay: Cell proliferation assay (MTS), RS4;11-BCL-2 D103E engineered cells; conditions: Homo sapiens, 72 h, read-out: RS4, 11 BCL2-D103E IC50
Summary of the method: as §1

Toledo cells = assay: Cell proliferation assay (MTS), Toledo cells; conditions: Homo sapiens, 72 h
Summary of the method: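 Toledo cells (RPMI-1640, 10% FBS) seeded at 30000 cells/well, rested 4 h, then exposed 72 h at 37 °C, 5% CO2 to compound at nine final concentrations, 1.5–10000 nM. Viability by MTS (2 h), absorbance at 490 nm. IC50 from the concentration-response.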

SMILES | IC50 (RS4;11-BCL-2 G101V cells) | IC50 (RS4;11-BCL-2 F104L cells) | IC50 (RS4;11-BCL-2 D103E cells) | IC50 (Toledo cells)
COc1cc(CN2CCN(C3CC4(CCN(c5ccc(C(=O)NS(=O)(=O)c6cnc(NC[C@H]7CC[C@](C)(O)CC7)c([N+](=O)[O-])c6)c(Oc6cc7c(F)c[nH]c7nc6OC)c5)CC4)C3)[C@H](c3ccccc3C(C)C)C2)cc(Cl)n1 [Example 54, 4-(2-((R)-4-((2-chloro-6-methoxypyridin-4-yl)methyl)-2-(2-isopropylphenyl)piperazin-1-yl)-7-azaspiro [3.5]nonan-7-yl)-2-((3-fluoro-6-methoxy-1H-pyrrolo[2,3-b]pyridin-5-yl)oxy)-N-((6-((((1r,4r)-4-hydroxy-4-methylcyclohexyl)methyl)amino)-5-nitropyridin-3-yl)sulfonyl)benzamide] | 1 nM | 1 nM | 1 nM | 
COc1ccc(CN2CCN(C3CC4(CCN(c5ccc(C(=O)NS(=O)(=O)c6cnc(NC[C@H]7CC[C@](C)(O)CC7)c([N+](=O)[O-])c6)c(Oc6cnc7[nH]cc(F)c7c6)c5)CC4)C3)[C@H](c3ccccc3C(C)C)C2)cc1 [Example 71, 2-((3-fluoro-1H-pyrrolo[2,3-b]pyridin-5-yl)oxy)-N-((6-((((1r,4r)-4-hydroxy-4-methylcyclohexyl)methyl)amino)-5-nitropyridin-3-yl)sulfonyl)-4-(2-((R)-2-(2-isopropylphenyl)-4-(4-methoxybenzyl)piperazin-1-yl)-7-azaspiro[3.5]nonan-7-yl)benzamide] | 1 nM | 1 nM | 1 nM | 1 nM
COc1nc2[nH]cc(F)c2cc1Oc1cc(N2CCC3(CC2)CC(N2CCN(C(C)C)C[C@H]2c2ccccc2C(C)C)C3)ccc1C(=O)NS(=O)(=O)c1cnc(NC[C@H]2CC[C@](C)(O)CC2)c([N+](=O)[O-])c1 [Example 99, 2-((3-fluoro-6-methoxy-1H-pyrrolo[2,3-b]pyridin-5-yl)oxy)-N-((6-((((1r,4r)-4-hydroxy-4-methylcyclohexyl)methyl)amino)-5-nitropyridin-3-yl)sulfonyl)-4-(2-((R)-4-isopropyl-2-(2-isopropylphenyl)piperazin-1-yl)-7-azaspiro[3.5]nonan-7-yl)benzamide] | 1 nM | 1 nM | 1 nM | 
CC(C)c1ccccc1[C@@H]1CN(Cc2ccncc2)CCN1C1CC2(CCN(c3ccc(C(=O)NS(=O)(=O)c4cnc(NC[C@H]5CC[C@](C)(O)CC5)c([N+](=O)[O-])c4)c(Oc4cnc5[nH]cc(F)c5c4)c3)CC2)C1 [Example 240, 2-((3-fluoro-1H-pyrrolo[2,3-b]pyridin-5-yl)oxy)-N-((6-((((1r,4r)-4-hydroxy-4-methylcyclohexyl)methyl)amino)-5-nitropyridin-3-yl)sulfonyl)-4-(2-((R)-2-(2-isopropylphenyl)-4-(pyridin-4-ylmethyl)piperazin-1-yl)-7-azaspiro[3.5]nonan-7-yl)benzamide] | 1 nM | 1 nM | 3 nM | 1 nM
COc1cc(CN2CCN(C3CC4(CCN(c5ccc(C(=O)NS(=O)(=O)c6cnc(NC[C@H]7CC[C@](C)(O)CC7)c([N+](=O)[O-])c6)c(Oc6cc7c(F)c[nH]c7nc6OC)c5)CC4)C3)[C@H](c3ccccc3C(C)C)C2)cc(OC)n1 [Example 62, 4-(2-((R)-4-((2,6-dimethoxypyridin-4-yl)methyl)-2-(2-isopropylphenyl)piperazin-1-yl)-7-azaspiro[3.5]nonan-7-yl)-2-((3-fluoro-6-methoxy-1H-pyrrolo[2,3-b]pyridin-5-yl)oxy)-N-((6-((((1r,4r)-4-hydroxy-4-methylcyclohexyl)methyl)amino)-5-nitropyridin-3-yl)sulfonyl)benzamide] | 1 nM | 1 nM | 1 nM | 
COc1nc2[nH]cc(F)c2cc1Oc1cc(N2CCC3(CC2)CC(N2CCN(C[C@@H]4COCCO4)C[C@H]2c2ccccc2C(C)C)C3)ccc1C(=O)NS(=O)(=O)c1cnc(NC[C@H]2CC[C@](C)(O)CC2)c([N+](=O)[O-])c1 [Example 334, 4-(2-((R)-4-(((R)-1,4-dioxan-2-yl)methyl)-2-(2-isopropylphenyl)piperazin-1-yl)-7-azaspiro[3.5]nonan-7-yl)-2-((3-fluoro-6-methoxy-1H-pyrrolo[2,3-b]pyridin-5-yl)oxy)-N-((6-((((1r,4r)-4-hydroxy-4-methylcyclohexyl)methyl)amino)-5-nitropyridin-3-yl)sulfonyl)benzamide] | 1 nM | 1 nM | 1 nM | 1 nM
COc1nc(CN2CCN(C3CC4(CCN(c5ccc(C(=O)NS(=O)(=O)c6cnc(NC[C@H]7CC[C@](C)(O)CC7)c([N+](=O)[O-])c6)c(Oc6cnc7[nH]cc(F)c7c6)c5)CC4)C3)[C@H](c3ccccc3C(C)C)C2)ccc1C1CC1 [Example 291, 4-(2-((R)-4-((5-cyclopropyl-6-methoxypyridin-2-yl)methyl)-2-(2-isopropylphenyl)piperazin-1-yl)-7-azaspiro[3.5]nonan-7-yl)-2-((3-fluoro-1H-pyrrolo[2,3-b]pyridin-5-yl)oxy)-N-((6-((((1r,4r)-4-hydroxy-4-methylcyclohexyl)methyl)amino)-5-nitropyridin-3-yl)sulfonyl)benzamide] |  | 1 nM | 1 nM | 1 nM
COc1nc2[nH]cc(F)c2cc1Oc1cc(N2CCC3(CC2)CC(N2CCN(Cc4ccc(S(C)(=O)=O)cc4)C[C@H]2c2ccccc2C(C)C)C3)ccc1C(=O)NS(=O)(=O)c1cnc(NC[C@H]2CC[C@](C)(O)CC2)c([N+](=O)[O-])c1 [Example 327, 2-((3-fluoro-6-methoxy-1H-pyrrolo[2,3-b]pyridin-5-yl)oxy)-N-((6-((((1r,4r)-4-hydroxy-4-methylcyclohexyl)methyl)amino)-5-nitropyridin-3-yl)sulfonyl)-4-(2-((R)-2-(2-isopropylphenyl)-4-(4-(methylsulfonyl)benzyl)piperazin-1-yl)-7-azaspiro[3.5]nonan-7-yl)benzamide] |  | 1 nM | 1 nM | 1 nM
COc1cc(CN2CCN(C3CC4(CCN(c5ccc(C(=O)NS(=O)(=O)c6cnc(NC[C@H]7CC[C@](C)(O)CC7)c([N+](=O)[O-])c6)c(Oc6cc7c(F)c[nH]c7nc6OC)c5)CC4)C3)[C@H](c3ccccc3C(C)C)C2)cc(F)n1 [Example 53, 2-((3-fluoro-6-methoxy-1H-pyrrolo[2,3-b]pyridin-5-yl)oxy)-4-(2-((R)-4-((2-fluoro-6-methoxypyridin-4-yl)methyl)-2-(2-isopropylphenyl)piperazin-1-yl)-7-azaspiro[3.5]nonan-7-yl)-N-((6-((((1r,4r)-4-hydroxy-4-methylcyclohexyl)methyl)amino)-5-nitropyridin-3-yl)sulfonyl)benzamide] | 1 nM | 1 nM | 1 nM | 
COc1nc2[nH]cc(F)c2cc1Oc1cc(N2CCC3(CC2)CC(N2CCN(Cc4ccnc(OCCO)c4)C[C@H]2c2ccccc2C(C)C)C3)ccc1C(=O)NS(=O)(=O)c1cnc(NC[C@H]2CC[C@](C)(O)CC2)c([N+](=O)[O-])c1 [Example 64, 2-((3-fluoro-6-methoxy-1H-pyrrolo[2,3-b]pyridin-5-yl)oxy)-N-((6-((((1r,4r)-4-hydroxy-4-methylcyclohexyl)methyl)amino)-5-nitropyridin-3-yl)sulfonyl)-4-(2-((R)-4-((2-(2-hydroxyethoxy)pyridin-4-yl)methyl)-2-(2-isopropylphenyl)piperazin-1-yl)-7-azaspiro[3.5]nonan-7-yl)benzamide] | 1 nM | 3 nM | 1 nM | 
